{"source": "patent US5700481A", "about": "“Transdermal drug delivery process” (Takeda Chemical Industries, Ltd., priority 1995, dated 1997)", "key": {"[1]": {"assay": "Transdermal iontophoretic delivery of salmon calcitonin; serum concentration by radioimmunoassay and bioavailability (AUC relative to intravenous) (Example 1)", "assay_type": "in vivo, SD rat (male, 7-week aged)", "conditions": "for bioavailability (BA): 20 μg per membrane (BSA pretreated), 40 kHz, duty 30%, 15 min x 3 at 5 min interval, vs intravenous AUC", "description": "(§1) An abdominal skin of a SD rat (male, 7-week aged) was clipped with a hair clipper and treated with a shaver under pentobarbital-anesthetization, and was slightly rubbed with an absorbent cotton (cotton wool) containing a 70% aqueous solution of ethanol for defatting and disinfection. […] Meanwhile, in the Applicator A shown in FIG. 1, the dried drug was dissolved immediately before use by supplying or feeding water to the membrane from the reservoir. In the applicator B illustrated in FIG. 2, the applicator was first attached or adhered to the skin and then the dried drug was dissolved by supplying 120 μl of a distilled water from an injection tip. Further, a silver chloride electrode (2.5 cm^2) as a reference electrode was adhered and fixed in the opposite part to the adhered part of the applicator via an electrically conductible gel comprising 10% PVA gel containing 0.9% of NaCl in a thickness of 2 mm.\nThen, a continuous voltage application for 15 minutes was repeated for 3 times at a time interval of 5 minutes in the following manner. That is, the voltage application was effected by a direct-current pulse application (depolarizing constant voltage square pulse application) with a frequency of 40 kHz and a duty (pulse-duty factor) of 30% using the applicator as an anode and the reference electrode as a cathode, with changing the applied voltage as follows. In the respective voltage application, observed electric current in the initial stage of the voltage application was respectively determined for each rat. The current density as a mean value for the subjects are as follows.\n(1) Applicator A: voltage 6 V current density about 0.04 mA/cm^2\n(2) Applicator B: voltage 12 V current density about 0.24 mA/cm^2\n(3) Applicator C: voltage 12 V current density about 0.24 mA/cm^2\n(§2) Blood was took from jugular veins (cervical vein) of the rat and centrifuged at a rate of 12,000 rpm for 10 minutes, and the concentration of the salmon calcitonin in the obtained serum sample was determined by a radioimmunoassay method. The results are illustrated in FIG. 3."}, "[2]": {"assay": "Transdermal iontophoretic delivery of salmon calcitonin with different amounts in drug-retaining membrane (Example 2)", "assay_type": "in vivo, SD rat (male, 7-week aged)", "conditions": "12 V", "description": "as §1, with “Further, a silver chloride electrode (2.5 cm^2) as a reference electrode was adhered and fixed in the opposite part to the adhered part of the applicator via an electrically conductible gel comprising 10% PVA gel containing 0.9% of NaCl in a thickness of 2 mm.” left out\nBlood was took from jugular veins (cervical vein) of the rat and centrifuged at a rate of 12,000 rpm for 10 minutes, and the concentration of the salmon calcitonin in the obtained serum sample was determined by a radioimmunoassay method. […]\n(§3) Under pentobarbital-anesthetization, an abdominal skin of a SD rat (male, 7-week aged) was clipped with a hair clipper and treated with a shaver, and was slightly rubbed with an absorbent cotton (cotton wool) containing a 70% aqueous solution of ethanol for defatting and disinfection. […] The current density determined in the initial stage of the voltage application was about 0.24 mA/cm^2 as a mean value of the each rat. […]"}, "[3]": {"assay": "Correlation between initial electric current value and AUC value (Example 3)", "assay_type": "in vivo, SD rat (male, 7-week aged)", "conditions": "in terms of dosage of 20 μg; initial current 0.2 mA/2.5 cm^2 to 0.7 mA/2.5 cm^2 (0.08 to 0.28 mA/cm^2); 48 tests; FIG. 5", "description": "as §1, with “Further, a silver chloride electrode (2.5 cm^2) as a reference electrode was adhered and fixed in the opposite part to the adhered part of the applicator via an electrically conductible gel comprising 10% PVA gel containing 0.9% of NaCl in a thickness of 2 mm.” left out\nThen, a continuous voltage application for 15 minutes was repeated for 3 times at a time interval of 5 minutes in the following manner. […] In the respective voltage application, observed electric current in the initial stage of the voltage application was respectively determined for each rat. […]\nas §3"}, "[4]": {"assay": "Transdermal iontophoretic delivery of salmon calcitonin with stepwise decreased voltage (Example 4)", "assay_type": "in vivo, male SD rat (7-week aged)", "conditions": "for bioavailability (BA): Applicator A, 4 μg per membrane (BAC pretreated), 30 kHz, duty 50%", "description": "as §2\nAn abdominal skin of a male SD rat (7-week aged) was clipped with a hair clipper and treated with a shaver under pentobarbital-anesthetization, and was slightly rubbed with an absorbent cotton holding a 70% aqueous solution of ethanol for defatting and disinfection. […] Immediately before the use of the applicator, the dried drug was dissolved by supplying water from the reservoir. Further, a reference electrode was attached and fixed to the skin in the same manner as Example 1.\nThen, in the common condition of a frequency of 30 kHz and a duty of 50%, the calcitonin was transdermally delivered according to the following processes:\n(1) a process of applying a voltage of 12 V for 5 minutes and, without interruption, applying a voltage of 7.5 V for 40 minutes,\n(2) a process of applying a voltage of 12 V for 15 minutes and, without interruption, applying a voltage of 7.5 V for 30 minutes, and\n(3) a process of applying a voltage of 12 V for 15 minutes.\nThe salmon calcitonin concentrations in the serum were evaluated in the same manner as Example 1, and the results are illustrated in FIG. 6."}}, "data": [{"substance": "salmon calcitonin", "values": [{"measurement": "bioavailability (BA)", "setting": "[1]; Applicator A, applied voltage 6 V", "value": 4.6, "unit": "%"}, {"measurement": "bioavailability (BA)", "setting": "[1]; Applicator A, applied voltage 12 V", "value": 16.6, "unit": "%"}, {"measurement": "bioavailability (BA)", "setting": "[1]; Applicator B, applied voltage 12 V", "value": 16.6, "unit": "%"}, {"measurement": "salmon calcitonin concentration in the serum", "setting": "[1]; applied voltage 12 V (iontophoresis (2) and (3)) in comparison with 6 V (1), FIG. 3", "value": "can be increased in comparison with the iontophoresis (1)"}, {"measurement": "bioavailability (BA)", "setting": "[2]; Applicator B, drug-retaining membrane (1), 10 μg (BAC pretreated), 40 kHz, duty 30%, 15 min x 3 at 5 min interval", "value": 23.3, "unit": "%"}, {"measurement": "serum salmon calcitonin concentration", "setting": "[2]; according to possessing amount (10 or 20 μg), FIG. 4", "value": "could be controlled according to the possessing amount"}, {"measurement": "AUC value", "setting": "[3]", "value": "large AUC values"}, {"measurement": "bioavailability (BA)", "setting": "[4]; process (1): 12 V for 5 min then 7.5 V for 40 min", "value": 13.6, "unit": "%"}, {"measurement": "bioavailability (BA)", "setting": "[4]; process (2): 12 V for 15 min then 7.5 V for 30 min", "value": 14.2, "unit": "%"}, {"measurement": "bioavailability (BA)", "setting": "[4]; process (3): 12 V for 15 min", "value": 3.6, "unit": "%"}, {"measurement": "serum salmon calcitonin concentration", "setting": "[4]; processes (1) and (2) compared with process (3), FIG. 6", "value": "high"}]}]}
